Assay results from patent US8835644B2, “Broad spectrum benzothiophene-nitrothiazolide and other antimicrobials” (University of Virginia Patent Foundation, priority 2009, dated 2014).
In brackets after ≈: the same amount, converted by molar mass. Read-outs that look alike come from different tables or passages of the source.

Columns and labels:
[1] = test system: H. pylori; experiment: MIC testing by broth dilution, H. pylori; format: cell-based, Helicobacter pylori
Method: (§1) A standard broth dilution protocol was used in 96 well microplates containing a standard dilution of the microorganism to be tested in 100 microliters of the appropriate medium. Appropriate medium: E. coli, LB medium; Staphylococcus strains, Trypticase Soy; and for H. pylori and C. jejuni, Brain Heart Infusion. The compounds to be tested were set at 32 μg/ml in 200 microliters in well one and then serially diluted to provide a range from 32 to 0.06. The wells were scored visually at 24 h. The well where there was no growth was recorded as the MIC. Clostridium difficile was tested by agar diffusion and disk diffusion (Kirby Bower) methods under anaerobic conditions on Wilkins Chalgrin agar. In these assays, zone of inhibited growth was measured and compared by relative ratio to the zone recorded for NTZ.
(§2) Representative compounds of the invention were tested in a series of assays against a series of organisms as described above. […] The organisms tested include, C. difficile, H. pylori, C. jejuni, MRSA, S. epidermidis, and E. coli. S. epidermidis and E. coli were tested in the plank and biofilm assay. A disk diffusion assay was also used for C. difficile. Direct PFOR enzyme assays were also performed. All analogues and derivatives were not tested on every organism in every type of assay (the “-” in each table means that it was not tested).

[2] = test system: MRSA; experiment: MIC testing by broth dilution, MRSA; format: cell-based, Staphylococcus aureus
Method: as §1, §2

[3] = test system: S. epidermidis biofilm; experiment: S. epidermidis biofilm assay (activity tables); format: cell-based, Staphylococcus epidermidis
Method: Staphylococcal strains were cultured overnight in TSB at 37° C. with shaking, diluted in fresh medium to an OD600 of 0.01 and 200 W was dispensed into sterile flat bottom polystyrene 96 well microtiter plates (Costar 3596, Corning Inc.). […] Each compound and dilution was tested in triplicate. The plates were incubated overnight at 37° C. in a humidified incubator, without shaking and both growth and biofilm accumulation were determined at 16 h.
Following recording of turbidities, the culture medium was aspirated and the wells were washed three times with distilled water, blotted on paper towels, and fixed with 75% ethanol for 10 minutes.
To visualize biofilm material, 0.5% crystal violet was added to each well and after 5 minutes was removed and the wells washed three times with distilled water. Plates were read using a microplate reader at a wavelength of 570 nm. The dye was then extracted by adding 200 W of 95% ethanol, and the absorbance was read again at 570 nm. All assays were performed in triplicate and the mean and standard deviation determined. […]
as §2

[4] = test system: S. epidermidis; experiment: MIC testing by broth dilution, S. epidermidis plank; format: cell-based, Staphylococcus epidermidis
Method: as §1, §2

[5] = test system: E. coli biofilm; experiment: E. coli biofilm assay (activity tables); format: cell-based, Escherichia coli; details: biofilm; read-out: MIC (μM) E. coli Biofilm
Method: A quantitative biofilm assay was used to determine the effect of NTZ on biofilm formation (41). Strain 042 was grown overnight at 37° C. with shaking and inoculated 1:100 in 200 μl culture medium in Costar 96-well, flat-bottom, polystyrene microtiter plates containing appropriate concentrations of NTZ. Plates were incubated statically at 37° C. in a humidified incubator. At 24 h, bacterial growth was measured by either transferring […] aliquots to another microtiter plate to determine turbidity or by diluting 100 μl aliquots 1:100 in 9.9 ml PBS for quantitative plate counts on LB medium. Bacterial counts in triplicate are reported as cfu/ml. Biofilm was visualized following staining with 0.5% crystal violet (41) and the absorbance was read at 570 nm using a microplate reader (Molecular Dynamics). All experiments were in triplicate and reported as mean and standard deviation.
as §1, §2

[6] = test system: E. coli; experiment: MIC testing by broth dilution, E. coli plank; format: cell-based, Escherichia coli
Method: as §1, §2

[7] = test system: C. jejuni; experiment: MIC testing by broth dilution, C. jejuni; format: cell-based, Campylobacter jejuni
Method: as §1, §2

[8] = test system: C. difficile; experiment: Disk diffusion (Kirby Bower), C. difficile; format: cell-based, Clostridium difficile; details: for Disk Diffusion (%) C. difficile: zone of inhibited growth as relative ratio to the zone for NTZ
Method: as §1, §2

[9] = broth dilution, Brain Heart Infusion, 24 h, read-out: MIC (μM) H. pylori
[10] = broth dilution, Trypticase Soy, 24 h, read-out: MIC (μM) MRSA
[11] = broth dilution, Trypticase Soy, 24 h, read-out: MIC (μM) S. epidermidis Plank
[12] = broth dilution, LB medium, 24 h, read-out: MIC (μM) E. coli Plank
[13] = broth dilution, Brain Heart Infusion, 24 h, read-out: MIC (μM) C. jejuni
[14] = Helicobacter pylori, broth dilution, Brain Heart Infusion, 24 h, read-out: MIC (μM) H. pylori
[15] = Staphylococcus aureus, MRSA, broth dilution, Trypticase Soy, 24 h, read-out: MIC (μM) MRSA
[16] = Staphylococcus epidermidis, broth dilution, Trypticase Soy, 24 h, read-out: MIC (μM) S. epidermidis Plank
[17] = Escherichia coli, broth dilution, LB medium, 24 h, read-out: MIC (μM) E. coli Plank
[18] = Campylobacter jejuni, broth dilution, Brain Heart Infusion, 24 h, read-out: MIC (μM) C. jejuni

| Compound | MIC [1, 9] | MIC [2, 10] | MIC [4, 11] | MIC [5] | MIC [6, 12] | MIC [7, 13] | Disk Diffusion (%) C. difficile [8] | also measured |
| --- | --- | --- | --- | --- | --- | --- | --- | --- |
| CC1=C(C(=O)Nc2ncc([N+](=O)[O-])s2)Cc2ccccc21 [VPC16a1018] | 0.7 µM (≈ 0.211 µg/mL) | 106.2 µM (≈ 32 µg/mL) | 106.2 µM (≈ 32 µg/mL) | 53.1 µM (≈ 16 µg/mL) | 106.2 µM (≈ 32 µg/mL) | 10.7 µM (≈ 3.22 µg/mL) |  | MIC (μM) S. epidermidis Biofilm [3]: 26.5 µM (≈ 7.99 µg/mL) |
| O=C(Nc1ncc([N+](=O)[O-])s1)c1cc2cc([N+](=O)[O-])ccc2o1 [VPC16a1019] |  |  |  |  |  |  |  | MIC ([1]; Furan analogues table, read-out: MIC H. pylori): 4.5 µM (≈ 1.5 µg/mL); MIC ([2]; Furan analogues table, read-out: MIC MRSA): 47.9 µM (≈ 16 µg/mL); Disk Diff (%) C. difficile ([8]; Nitazoxanide = 100, Furan analogues table): 77%; MIC ([4]; planktonic, Furan analogues table, read-out: MIC S. epidermidis Plank): 23.9 µM (≈ 7.99 µg/mL); MIC ([6]; planktonic, Furan analogues table, read-out: MIC E. coli Plank): 95.7 µM (≈ 32 µg/mL); MIC ([7]; Furan analogues table, read-out: MIC C. jejuni): 4.5 µM (≈ 1.5 µg/mL) |
| O=C(CCCc1ccccc1)Nc1ncc([N+](=O)[O-])s1 [VPC16a1020] | 13.8 µM (≈ 4.02 µg/mL) | 109.8 µM (≈ 32 µg/mL) | 109.8 µM (≈ 32 µg/mL) | 54.9 µM (≈ 16 µg/mL) | 109.8 µM (≈ 32 µg/mL) | 2.6 µM (≈ 0.757 µg/mL) | 33 ± 3% |  |
| Cl.N[C@H](C(=O)Nc1ncc([N+](=O)[O-])s1)c1ccccc1 [VPC16a1027] | 76.3 µM | 101.7 µM | 101.7 µM | 25.4 µM | 101.7 µM | 38.1 µM |  | MIC (μM) S. epidermidis Biofilm [3]: 101.7 µM |
| O=C(Nc1ncc([N+](=O)[O-])s1)c1cccc(OC(F)(F)F)c1 [VPC16a1041] | 1.1 µM (≈ 0.367 µg/mL) | 6.0 µM (≈ 2 µg/mL) | 12.0 µM (≈ 4 µg/mL) |  | 96.0 µM (≈ 32 µg/mL) | 9.0 µM (≈ 3 µg/mL) | 90% |  |
| O=C(CCc1ccccc1)Nc1ncc([N+](=O)[O-])s1 [VPC16b1030] | 0.3 µM (≈ 0.0832 µg/mL) | 115.4 µM (≈ 32 µg/mL) | 14.4 µM (≈ 3.99 µg/mL) | 50.5 µM (≈ 14 µg/mL) | 115.4 µM (≈ 32 µg/mL) | 1.30 µM (≈ 0.36 µg/mL) | 54.5 ± 0.5% |  |
| O=C(Nc1ncc([N+](=O)[O-])s1)c1cc2ccccc2[nH]1 [VPC16b1031, N-(5-Nitrothiazol-2-yl)-1H-indole-2-carboxamide] |  |  |  |  |  |  | 75% | MIC ([1]; Helicobacter pylori, 24 h, read-out: MIC (μM) H. pylori): 6.9 µM (≈ 1.99 µg/mL); MIC ([2]; Staphylococcus aureus, MRSA, 24 h, read-out: MIC (μM) MRSA): 27.8 µM (≈ 8.01 µg/mL); MIC ([4]; Staphylococcus epidermidis, 24 h, read-out: MIC (μM) S. epidermidis Plank): 13.9 µM (≈ 4.01 µg/mL); MIC ([6]; Escherichia coli, 24 h, read-out: MIC (μM) E. coli Plank): 111 µM (≈ 32 µg/mL); MIC ([7]; Campylobacter jejuni, 24 h, read-out: MIC (μM) C. jejuni): 13.9 µM (≈ 4.01 µg/mL) |
| NCCOc1ccccc1C(=O)Nc1ncc([N+](=O)[O-])s1.O=C(O)C(F)(F)F [VPC161219TFA] | 1.88 µM | 75.8 µM | 75.8 µM |  | 75.8 µM | 14.2 µM | 81% |  |
| O=C(Nc1ccccc1)c1ncc([N+](=O)[O-])s1 [VPC161232] |  |  |  |  |  |  | 0% | MIC [1, 14]: 6 µM (≈ 1.5 µg/mL); MIC [2, 15]: 32.1 µM (≈ 8 µg/mL); MIC [4, 16]: 16 µM (≈ 3.99 µg/mL); MIC [6, 17]: 128 µM (≈ 32 µg/mL); MIC [7, 18]: 8 µM (≈ 1.99 µg/mL) |
| O=C(O)CCCC(=O)Nc1ncc([N+](=O)[O-])s1 [VPC161273] | 5.8 µM (≈ 1.5 µg/mL) | 123.4 µM (≈ 32 µg/mL) |  | 61.7 µM (≈ 16 µg/mL) | 123.4 µM (≈ 32 µg/mL) | 123.4 µM (≈ 32 µg/mL) |  | MIC (μM) S. epidermidis Biofilm [3]: 123.4 µM (≈ 32 µg/mL) |
| CC(C)(C)OC(=O)COc1ccccc1C(=O)Nc1ncc([N+](=O)[O-])s1 [VPC162035, tert-butyl 2-(2-(5-nitrothiazol-2-ylcarbamoyl)phenoxy)acetate] |  |  |  |  |  |  | 0% | MIC [1, 14]: 1 µM (≈ 0.379 µg/mL); MIC [2, 15]: 84.3 µM (≈ 32 µg/mL); MIC [4, 16]: 84.3 µM (≈ 32 µg/mL); MIC [6, 17]: 84.3 µM (≈ 32 µg/mL); MIC [7, 18]: 84.4 µM (≈ 32 µg/mL) |
